Data from patent US20260374792A1, “PHENYL-FREE BISCATIONIC QUATERNARY PHOSPHONIUM COMPOUNDS AS ANTIMICROBIAL AGENTS” (priority 2022, published 2026).

How the values were obtained:
E. faecalis = assay: MBEC, biofilm eradication, E. faecalis; format: cell-based, Enterococcus faecalis; conditions: 24 hours, 37 °C, TSB
Method: (§1) A regrowth assay was used to establish the MBEC of a compound to evaluate the antibiofilm activity.
(§2) Biofilm eradication experiments were performed using a pegged-lid microtiter plate assay to determine the MBEC values for compounds of interest, as previously described. […] Sci. Rep. 2017, 7, 2003; and Raval, Y. S., Flurin, L., Mohamed, A., Greenwood-Quaintance, K. E., Beyenal, H., & Patel, R. In Vitro Activity of Hydrogen Peroxide and Hypochlorous Acid Generated by Electrochemical Scaffolds Against Planktonic and Biofilm Bacteria. Antimicrob Agents Chemother. 2021, 65, e01966-20. Briefly, […] of mid-log phase culture diluted to ca. 10^6 CFU/mL in tryptic soy broth (TSB) was added to wells of plat-bottom 96-well plates (Thermo Scientific, 266120) and covered with 96-pegged lid (Thermo Scientific, 445497). Plates were incubated to establish bacterial biofilms after incubation at 37 °C for 24 hours. The pegged lid was then removed, washed with PBS, and transferred to another 96-well plate containing 2-fold serial dilutions of the test compounds (the “challenge plate”). The total volume in each well was […], comprising of […] of compound diluted in water/DMSO, with a starting DMSO concentration of 2.5%, and […] of TSB. Plates were incubated statically at 37 °C for 24 hours. Next, the pegged lids were transferred to a fresh 96-well plate containing […] of TSB and incubated overnight at 37 °C. MBEC values were determined as the lowest test concentration that resulted eradicated biofilm (i.e., wells displaying no turbidity in the final plate).

HA-MRSA = assay: MBEC, biofilm eradication, HA-MRSA; format: cell-based, Staphylococcus aureus; conditions: 24 hours, 37 °C, TSB
Method: as §1, §2

P. aeruginosa = assay: MBEC, biofilm eradication, P. aeruginosa; format: cell-based, Pseudomonas aeruginosa; conditions: 24 hours, 37 °C, TSB
Method: as §1, §2

A. baumannii [1] = assay: MBEC, biofilm eradication, A. baumannii; format: cell-based, Acinetobacter baumannii; conditions: 24 hours, 37 °C, TSB
Method: as §1, §2

E. faecalis (OG1RF) = assay: MIC against E. faecalis; format: cell-based; conditions: Enterococcus faecalis, 72 h
Method: (§3) The term “minimum inhibitory concentration (MIC)” means the lowest concentration of an antimicrobial agent that will inhibit the visible growth of a microorganism after overnight incubation. MIC values against bacteria, for example, the Gram-positive Staphylococcus aureus and Enterococcus faecalis and the Gram-negative Escherichia coli and Pseudomonas aeruginosa were determined by standard methods. See also P. A. Wayne, Methods for Dilution Antimicrobial Tests for Bacteria that Grow Aerobically; Approved Standard, Ninth Edition, 2012, CLSI Document M07-A9, Vol. 32 No. 2.
(§4) Biological testing procedures were adapted from prior work by Melander and coworkers. For all biological assays, laboratory strains of methicillin-susceptible Staphylococcus aureus MSSA (SH1000), Staphylococcus aureus CA-MRSA (USA300-0114), Staphylococcus aureus HA-MRSA (ATCC 33591), Escherichia coli (MC4100), Enterococcus faecalis (OG1RF), Acinetobacter baumannii (ATCC 17978), were grown with shaking at 37 °C overnight from freezer stocks in 5 mL of the indicated media: SH1000, OG1RF, MC4100, USA300-0114, and ATCC 17978 were grown in BDTM Mueller-Hinton broth (MHB), whereas ATCC 33591 was grown in BDTM tryptic soy broth (TSB). The inoculum were then streaked onto Mueller-Hinton agar (MHA) plates and grown overnight at 37 °C. From the plates, single colonies were selected, diluted into 50 mL of fresh media and grown overnight at 37 °C with shaking for use in the MIC assays. Optical density (OD) measurements were obtained using a SpectraMax iD3 plate reader (Molecular Devices, United States).
(§5) Compounds were serially diluted two-fold from stock solutions (1.0 mM) to yield twelve 100 μL test concentrations, wherein the starting concentration of dimethyl sulfoxide (DMSO) was 2.5%. Overnight S. aureus, E. faecalis, E. coli, A. baumannii, USA300-0114 (CA-MRSA), and ATCC 33591 (HA-MRSA) cultures were diluted to ca. 10^6 CFU/mL in MHB or TSB and regrown to mid-exponential phase, as determined by optical density recorded at 600 nm (OD600). All cultures were then diluted again to ca. 10^6 CFU/mL and 100 μL were inoculated into each well of a U-bottom 96-well plate (Corning, 351177) containing 100 μL of compound solution. Plates were incubated statically at 37 °C for 72 hours upon which wells were evaluated visually for bacterial growth. The MIC was determined as the lowest concentration of compound resulting in no bacterial growth visible to the naked eye, based on the highest value in three independent experiments. Aqueous DMSO controls were conducted as appropriate for each compound.
(§6) The prepared library of biscationic amphiphilic compounds was assessed for performance as antibacterial disinfectants by determining the minimum inhibitory concentration (MIC) for each against a panel of bacteria. The bacteria selected for the study were chosen to evaluate the broad spectrum antimicrobial performance of the QPCs, and therefore, included both Gram-positive and Gram-negative bacterial strains, including those with known antimicrobial resistance mechanisms. These bacteria include the Gram-positive strains of methicillin-susceptible Staphylococcus aureus [MSSA; SH1000], community-acquired methicillin-resistant Staphylococcus aureus [CA-MRSA; USA 300-0114], hospital-acquired methicillin-resistant Staphylococcus aureus [HA-MRSA; ATCC 33591] and the […], Escherichia coli [MC4100], Acinetobacter baumannii [ATCC 17498] and Pseudomonas aeruginosa [PAO1].

panel of bacteria [2] = assay: MIC across the panel of bacteria (Gram-positive and Gram-negative); format: cell-based; conditions: for MIC: read-out: MIC values; for antimicrobial activity / bioactivity (in words): over the bacterial panel
Method: as §3, §4, §5, §6

P. aeruginosa (PAO1) = assay: MIC against P. aeruginosa; format: cell-based; conditions: Pseudomonas aeruginosa; P. aeruginosa (PAO1); 72 hours, 37 °C; read-out: MIC
Method: as §3, §4, §5, §6

MSSA (SH1000) = assay: MIC against methicillin-susceptible S. aureus (MSSA); format: cell-based; conditions: Staphylococcus aureus; MSSA (SH1000); 72 hours, 37 °C; read-out: MIC
Method: as §3, §4, §5, §6

A. baumannii [3] = assay: MIC against A. baumannii; format: cell-based; conditions: Acinetobacter baumannii, 72 h
Method: as §3, §4, §5, §6

HA-MRSA (ATCC 33591) = assay: MIC against hospital-acquired methicillin-resistant S. aureus (HA-MRSA); format: cell-based; conditions: Staphylococcus aureus, 72 h
Method: as §3, §4, §5, §6

E. coli (MC4100) = assay: MIC against E. coli; format: cell-based; conditions: Escherichia coli, 72 hours, 37 °C
Method: as §3, §4, §5, §6

CA-MRSA (USA300-0114) = assay: MIC against community-acquired methicillin-resistant S. aureus (CA-MRSA); format: cell-based; conditions: Staphylococcus aureus, 72 h
Method: as §3, §4, §5, §6

red blood cells = assay: Red Blood Cell (RBC) Lysis Assay (lysis20); format: cell-based, sheep; conditions: for Lysis20: concentration inducing 20% RBC lysis, sheep blood, 1 hour, 37 °C
Method: RBC lysis assays were performed on mechanically defibrinated sheep blood (Hemostat Labs: DSB030). An aliquot of 1.5 mL blood was placed into a microcentrifuge tube and centrifuged at 3,800 rpm for ten minutes. The supernatant was removed, and the cells were resuspended with 1 mL of phosphate-buffered saline (PBS). The suspension was centrifuged as described above, the supernatant was removed, and cells were resuspended 4 additional times in 1 mL PBS. The final cell suspension was diluted twentyfold with PBS. Compounds were serially diluted with PBS two-fold from stock solutions (1.0 mM) to yield 100 μL of twelve test concentrations on a flat-bottom 96-well plate (Corning, 351172), wherein the starting concentration of DMSO was 2.5%. To each of the wells, 100 μL of the twentyfold suspension dilution was then inoculated. TritonX (1% by volume) served as a positive control (100% lysis marker) and sterile PBS served as a negative control (0% lysis marker). Samples were then placed in an incubator at 37 °C and shaken at 200 rpm. After 1 hour, the samples were centrifuged at 3,800 rpm for ten minutes. The absorbance of the supernatant was measured with a UV spectrometer at a 540 nm wavelength. The concentration inducing 20% RBC lysis was then calculated for each compound based upon the absorbances of the TritonX and PBS controls. Aqueous DMSO controls were conducted as appropriate for each compound.
The potential cytotoxicity of the compounds was also considered with the evaluation of hemolysis (lysis20) assays with 20% lysis of red blood cells serving as an indicator of potentially toxic compounds. Finally, the bioactivity of these compounds were benchmarked against a commercial benzalkonium chloride source (BAC; 70% benzyldimethyldodecylammonium chloride, and 30% benzyldimethyltetradecylammonium chloride) as well as some previously reported disinfectant compounds from the inventors' groups; included were bisQPC ^PhP6P-10,10 as well as ^PhP2P-10,10 and 12(2)12. A detailed description of the experimental procedures used to evaluate bioactivity and hemolysis assays are described above.

panel of bacteria [4] = conditions: Gram-positive and Gram-negative pathogens; earlier generation compound; cited from earlier work

| Structure (SMILES) | MBEC (E. faecalis) | MBEC (HA-MRSA) | MBEC (P. aeruginosa) | MBEC (A. baumannii [1]) | MIC (E. faecalis (OG1RF)) | MIC (panel of bacteria [2]) | MIC (P. aeruginosa (PAO1)) | MIC (MSSA (SH1000)) | MIC (A. baumannii [3]) | MIC (HA-MRSA (ATCC 33591)) | MIC (E. coli (MC4100)) | MIC (CA-MRSA (USA300-0114)) | hemolysis (lysis20) (in words) (red blood cells) | Lysis20 (red blood cells) | antimicrobial activity / bioactivity (in words) (panel of bacteria [2]) | antimicrobial efficacy (in words, earlier work) (panel of bacteria [4]) |
| --- | --- | --- | --- | --- | --- | --- | --- | --- | --- | --- | --- | --- | --- | --- | --- | --- |
| CCCCCCCCCC[N+](C)(C)CCCCCCCCCC.[Cl-] [DDAC, didecyldimethylammonium chloride] | 16 µM | 16 µM | >250 µM | 8 µM | – | – | – | – | – | – | – | – | – | – | – | – |
| CCCCCCCCC[P+](CC[P+](CCCCCCCCC)(C1CCCCC1)C1CCCCC1)(C1CCCCC1)C1CCCCC1 [^CyP2P-9,9] | – | – | – | – | 16 µM | 16 µM | 32 µM | 1 µM | 16 µM | 2 µM | 16 µM | 1 µM | diminished hemolysis over the commercial BAC control | 125 µM | – | – |
| CCCCCCCCCCC[P+](CC[P+](CCCCCCCCCCC)(C1CCCCC1)C1CCCCC1)(C1CCCCC1)C1CCCCC1 [^CyP2P-11,11] | – | – | – | – | 8 µM | 1 to 8 µM | 8 µM | 1 µM | 4 µM | 1 µM | 4 µM | 1 µM | – | 8 µM | single-digit micromolar activity | – |
| CCCCCCCCCCCC[P+](CC)(CC)CC[P+](CC)(CC)CCCCCCCCCCCC [^EtP2P-12,12] | – | – | – | – | 16 µM | – | 8 µM | 1 µM | 2 µM | 1 µM | 2 µM | 1 µM | – | 8 µM | single-digit micromolar activity with just one exception | – |
| CCCCCCCCCC[P+](CCCCCC[P+](CCCCCCCCCC)(c1ccccc1)c1ccccc1)(c1ccccc1)c1ccccc1 [^PhP6P-10,10, reference compound] | – | – | – | – | 2 µM | 1 to 4 µM | 2 µM | 1 µM | 4 µM | 1 µM | 2 µM | 1 µM | – | 8 µM | – | high degree of antimicrobial efficacy |
